US8153787B2 (priority 2005, dated 2012)
In brackets after ≈: the same amount, converted by molar mass. Like-named read-outs stand apart in the source and are kept apart here.

Columns and labels:
[1] = in vitro; conditions: human
[2] = test system: Vaccinia virus; experiment: microbe, parasite or virus in culture; format: cell-based; conditions: Orthopoxvirus vaccinia, read-out: EC50 vaccinia virus
[3] = test system: herpes simplex virus type 2 (HSV-2); experiment: microbe, parasite or virus in culture; format: cell-based; conditions: Human alphaherpesvirus 2, HEL, read-out: EC50 HSV-2 (G strain)
[4] = test system: herpes simplex virus type 1 (HSV-1); experiment: microbe, parasite or virus in culture; format: cell-based; conditions: Human alphaherpesvirus 1, HEL, read-out: EC50 HSV-1 (Kos strain)
[5] = test system: primate polyomavirus (SV40); experiment: microbe, parasite or virus in culture; format: cell-based, simian polyomavirus SV40; conditions: for EC50: Polyomavirus sp., BSC-1, in Primates
[6] = test system: Orf virus (NZ2); experiment: microbe, parasite or virus in culture; format: cell-based; conditions: Orf virus, HEL, read-out: EC50 Orf virus NZ2
[7] = test system: Varicella-Zoster Virus (VZV); experiment: microbe, parasite or virus in culture; format: cell-based; conditions: Human alphaherpesvirus 3, HEL
[8] = in vitro; conditions: human; remark: listed apart in the source
[9] = in vitro; conditions: mouse
[10] = test system: Vaccinia virus; experiment: organism not typed; format: cell-based; conditions: HEL
[11] = test system: HEL cells; conditions: HEL cells, microscopy
[12] = test system: murine polyomavirus; experiment: microbe, parasite or virus in culture; format: cell-based; conditions: for EC50: Alphapolyomavirus muris, UC1, UC1B
[13] = in vitro; conditions: human; remark: listed apart in the source
[14] = in vitro; conditions: African green monkey
[15] = test system: Human Cytomegalovirus (HCMV); experiment: microbe, parasite or virus in culture; format: cell-based
[16] = test system: Cowpox virus (Brighton); experiment: microbe, parasite or virus in culture; format: cell-based; conditions: Cowpox virus, HEL, read-out: EC50 Cowpox virus Brighton
[17] = test system: HSB-2 cells; conditions: human
[18] = test system: MOLT-3 cells; conditions: human
[19] = read-out: antiviral activity (EC50) SV40 PML-1 strain EK
[20] = read-out: antiviral activity (EC50) SV40 PML-2 strain DAR
[21] = read-out: antiviral activity (EC50) SV40 strain A2895
[22] = read-out: antiviral activity (EC50) 2PTA2
[23] = read-out: antiviral activity (EC50) MN/RDE Toronto

SMILES	selectivity index SV40 PML-1 strain EK [5]	selectivity index SV40 PML-2 strain DAR [5]	selectivity index SV40 strain A2895 [5]	EC50 [5, 19]	EC50 [5, 20]	EC50 [5, 21]	CC50 [9]	selectivity index 2PTA2 [12]	selectivity index MN/RDE Toronto [12]	EC50 [12, 22]	EC50 [12, 23]	CC50 [14]	Toxicity MCC (microscopy), HSB-2 cells [17]	further results
NC1=NC(=O)N(C[C@@H](CO)OCP(=O)(O)O)CN1 [5,6-dihydro derivative of HPMP-5-azaC, (S)-1-[3-Hydroxy-2-(phosphonomethoxy)propyl]-5,6-dihydro-5-azacytosine]														CC50 [1]: 120 µg/mL (≈ 425 µM); EC50 [2]: 38 µg/mL (≈ 135 µM)
Nc1nc2c(ncn2COCCO)c(=O)[nH]1 [Acyclovir, reference compound]														EC50 [3]: 0.032 µg/mL (≈ 0.142 µM); EC50 [4]: 0.032 µg/mL (≈ 0.142 µM)
NC(=NC(=O)NC[C@@H](CO)OCP(=O)(O)O)NC=O.[Na] [Compound 3a, Sodium 3-formyl-2-{[(2S)-3-hydroxy-2-(phosphono-methoxy)propyl]carbamoyl}guanidine]	>20	>24	>34	10 µg/mL	8.24 µg/mL	5.92 µg/mL	> 200 µg/mL	>13	>26	14.8 µg/mL	7.57 µg/mL	> 200 µg/mL	>200 µg/mL	EC50 [6]: 0.37 µg/mL; EC50 ([7]; read-out: EC50 VZV 07/1 strain (HEL cells)): 0.046 µg/mL; EC50 ([7]; read-out: EC50 VZV OKA strain (HEL cells)): 0.042 µg/mL; CC50 [8]: > 100 µg/mL; EC50 ([10]; read-out: EC50 Vaccinia Virus Lister): 7.61 µg/mL; EC50 ([10]; Orthopoxvirus vaccinia, read-out: EC50 Vaccinia Virus Copenhagen): 5.84 µg/mL; EC50 ([10]; Orthopoxvirus vaccinia, read-out: EC50 Vaccinia Virus Lederle): 7.97 µg/mL; EC50 ([10]; Orthopoxvirus vaccinia, read-out: EC50 Vaccinia Virus WR): 6.34 µg/mL; Toxicity MCC (microscop) [11]: >100 µg/mL; CC50 at 3 days [13]: > 50 µg/mL; EC50 ([15]; Human betaherpesvirus 5, AD169, HEL, read-out: EC50 HCMV AD-169 strain (HEL cells)): 0.1 µg/mL; EC50 ([15]; Human betaherpesvirus 5, HEL, read-out: EC50 HCMV Davis strain (HEL cells)): 0.12 µg/mL; EC50 [16]: 12.6 µg/mL; Toxicity MCC (microscopy), MOLT-3 cells [18]: 200 µg/mL
NC(N)=NC(=O)NC[C@@H](CO)OCP(=O)(O)O [Compound 10, 2-{[(2S)-3-Hydroxy-2-(Phosphonomethoxy)propyl]carbamoyl}guanidine]	1	1	1	> 200 µg/mL	> 200 µg/mL	> 200 µg/mL	> 200 µg/mL	1	1	> 200 µg/mL	> 200 µg/mL	> 200 µg/mL	>200 µg/mL	selectivity index LID-1 [12]: 1; selectivity index PTA [12]: 1; EC50 ([12]; read-out: antiviral activity (EC50) LID-1): > 200 µg/mL; EC50 ([12]; read-out: antiviral activity (EC50) PTA): > 200 µg/mL
